Laboratory results as given in PMC7757987, “Antitumor Activity and Mechanism Study of Riluzole and Its Derivatives” (Iranian Journal of Pharmaceutical Research : IJPR, 2020).

Key:
[1] = tested on: HeLa (human cervical cancer cell line); assay: CCK-8 anti-proliferative assay, HeLa; assay type: cell-based
Method: (§1) HeLa (human cervical cancer cell line), HepG2 (human liver cancer cell line), SP2/0 (mouse myeloma cell line), and LO2 (human normal liver cell line) were cultured in DMEM medium. Each medium was supplemented with 10% fetal bovine serum, 1% L-glutamine and 1% penicillin/streptomycin solution. The cell lines were kept in the incubator at 37 ℃ in a humidified atmosphere (90% RH) containing 5% CO2. […] The cell lines SP2/0 and MCF-7 were obtained from Laboratory Center of Shaanxi Province People’s Hospital.
(§2) 2×10^3 cells per well were planted into 96-well plates in 100 μL growth medium and incubated for 24 h. […] The mixture was incubated at 37 ℃ under a humidified 5% CO2 atmosphere. After incubation, 10 μL CCK-8 solution was added to each well and the cells were further incubated for 2 h at 37 ℃ according to the CCK-8 Technical Manual. Then, the OD value for each well was read at wavelength 450 nm to determine the cell viability on a microplate reader (Synergy HT, USA). […] The independent experiment was repeated at least three times. The percentage of growth inhibition was calculated as follows according to reference ([18]),
(§3) % of growth inhibition = [1 - absorbance of treated cells/absorbance of untreated cells] × 100%

[2] = tested on: HepG2 (human liver cancer cell line); assay: CCK-8 anti-proliferative assay, HepG2; assay type: cell-based
Method: as §1, §2, §3

[3] = tested on: SP2/0 (mouse myeloma cell line); assay: CCK-8 anti-proliferative assay, SP2/0; assay type: cell-based
Method: as §1, §2, §3

[4] = tested on: MCF-7 (human breast cancer cell line); assay: CCK-8 anti-proliferative assay, MCF-7; assay type: cell-based
Method: as §1, §2, §3

[5] = CCK-8 cytotoxicity assay, normal LO2 cells; assay type: cell-based, human; settings: human, LO2 normal liver cells; CCK-8, 48 h, normal liver cells; read-out: Cytotoxicity (IC50) L02
Method: as §1, §2, §3

[6] = tested on: LO2 (human normal liver cell line); assay: CCK-8 cytotoxicity assay, normal LO2 cells; assay type: cell-based; settings: CCK-8
Method: as §1, §2, §3

HeLa cells [7] = assay: Scratch wound healing (anti-migration) assay; assay type: cell-based, human; settings: 25 μmol/L, 24 h
Method: Once the monolayer was formed, a small scratch was made in the plate using a 10 μL pipette tip (0 h, day 1). The monolayer was once washed with PBS to remove debris or the detached cells from the monolayer. […] Images were taken using an inverted microscope ([19]). The experiments were performed in triplicate.
The relative scratch healing rate was calculated as follows according to reference ([20]),
Scratch healing rate = (scratch width at 0 h – the remaining scratch width at 24 h)/scratch width in 0 h×100%

HeLa cells [8] = assay: Cell morphological assessment by Hoechst 33258 staining; assay type: cell-based, human; settings: HeLa, 12.5, 25 and 50 μmol/L, 24 h
Method: The cell morphological assessment was carried out as described by Wang S ([21]). Morphological changes, such as chromosomal condensation and fragmentation in the nuclei of HeLa, were observed by Hoechst 33258 staining. In brief, HeLa cells were seeded at a concentration of 1×10^6 cells/well in 6-well plate and treated with compound 4a (12.5, 25 and 50 μmol/L) for 24 h. Subsequently, the cells were harvested and washed once with PBS and then fixed with 4% paraformaldehyde in PBS for 10 min. After staining with 10 mg/L Hoechst 33258 for 5 min, the cells were visualized under a fluorescent microscope (Nikon, Japan).

HeLa cells [9] = assay: Flow cytometric analysis of the cell cycle (PI); assay type: cell-based, human; settings: 24 h, control 3.66%
Method: Cell cycle assay was performed using the cell cycle and apoptosis analysis kit (Beyotime, China) and following the manufacturer’s instructions. The HeLa cells were treated with the indicated concentrations of compound 4a (12.5, 25 and 50 μmol/L) for 24 h. Next, the cells were harvested and washed twice with PBS. The cells were fixed with cold 70% ethanol for 12 h at 4 ℃ and were harvested and centrifuged at 1000 g for 5 min. Then, the cell density was adjusted to 1×10^6 cells/mL with PBS. Finally, the cells were stained with a propidium iodide (PI) solution (50 μg/mL). The number of cells in each phase of the cell cycle was analyzed by flow cytometry (FACSCalibur; BD Bioscience, USA).

HeLa cells [10] = assay: Flow cytometric analysis of cell apoptosis (annexin V-FITC/PI); assay type: cell-based, human; settings: 24 h, control 0.02%
Method: The cell apoptosis analysis was evaluated by using the annexin V-FITC apoptosis detection kit (Beyotime, China). Briefly, the HeLa cells (1×10^6 cells/well) were seeded into 6-well culture plates and incubated for 24 h. Then the cells were incubated for 24 h with the compound 4a (12.5, 25 and 50 μmol/L). The cells were then rinsed, resuspended in 60 μL binding buffer and incubated for 10 min with 5 μL annexin V-FITC at room temperature, followed by an addition of 120 μL binding buffer and 10 μL PI. The solutions were gently mixed and analyzed with the FACScan flow cytometry. The cells that were not treated were used as the control ([23]).

[11] = tested on: Bax, Bcl-2, Caspase-3, Cleaved caspase-3, PI3K in HeLa cells; assay: Western blot assay; assay type: cell-based, human; settings: 24 h; for Ratio of Bax/Bcl-2: HeLa, control 0.072
Method: HeLa cells were seeded into 6-well plates at 10^6 cells per well with different concentrations of compound 4a (12.5, 25 and 50 μmol/L) and incubated at 37 ℃ for 24 h in the presence of 10% FBS. The controls were treated with vehicle (0.5% DMSO). The cells were lysed into ice-cold cell lysis buffer for 30 min and centrifuged at 13000 g for 15 min at 4 ℃. The protein concentrations of the supernatant were determined by a BCA protein Assay Kit. Equal amounts of protein lysates were separated on 10% SDS-PAGE (sodium dodecyl sulfate-polyacrylamide gel electrophoresis) and transferred onto PVDF membranes. The membranes were blocked with 5% non-fat milk in TBST (0.1% Tween 20 in TBS) buffer for 2 h, incubated with primary antibodies at 1:1000 dilutions at 4 ℃, and washed by TBST four times. Then, the membrane was immunobloted with Bax, Bcl-2, Caspase-3, Cleaved caspase-3, PI3K, and β-actin primary antibodies at 1:1000 dilutions at 4 °C for 12 h. After secondary incubation in horseradish peroxidase-conjugated secondary antibodies at 1:3000 at room temperature for 2 h, protein bands were visualized on X-ray film (Kodak, Japan) using ECL (Beyotime, China). The immunoblots were detected by densitometric analysis. Equal loading of protein in each lane was confirmed by probing with β-actin antibody ([24]).

Compound: CCNc1nc2ccc(OC(F)(F)F)cc2s1 [Compound 4a, 2-(N-ethylamine)-6-trifluoromethoxy-benzothiazole]
- IC50 ([1]; Homo sapiens, HeLa, CCK-8, 48 h, read-out: Cytotoxicity (IC50) HeLa): 7.76 ± 0.45 µM
- Selectivity index (SI) HeLa ([1]; IC50 LO2 / IC50 HeLa): 8.37
- IC50 ([2]; Homo sapiens, HepG2, CCK-8, 48 h, read-out: Cytotoxicity (IC50) HepG2): 33.7 ± 1.04 µM
- Selectivity index (SI) HepG2 ([2]; IC50 LO2 / IC50 HepG2): 1.93
- Selectivity index (SI) SP2/0 ([3]; IC50 LO2 / IC50 SP2/0): 1.27
- IC50 ([3]; Mus musculus, CCK-8, 48 h, read-out: Cytotoxicity (IC50) SP2/0): 51.1 ± 2.73 µM
- IC50 ([4]; Homo sapiens, MCF7, CCK-8, 48 h, read-out: Cytotoxicity (IC50) MCF-7): 7.72 ± 0.53 µM
- Selectivity index (SI) MCF-7 ([4]; IC50 LO2 / IC50 MCF-7): 8.41
- IC50 at 48 h [5]: 65 ± 4.38 µM
- Concentration up to which nontoxic to LO2 cells [6]: up to 65 μmol/L
- Relative scratch healing rate (HeLa cells [7]): less than 20%
- Effect on HeLa cell migration (HeLa cells [7]; versus control group): significantly slower
- Nuclear morphology (Hoechst 33258) (HeLa cells [8]): nuclear condensation and fragmentation
- Cells in the G2/M phase (HeLa cells [9]; 12.5 μmol/L): 3.85%
- Cells in the G2/M phase (HeLa cells [9]; 25 μmol/L): 6.63%
- Cells in the G2/M phase (HeLa cells [9]; 50 μmol/L): 8.00%
- Early apoptotic rate (LR quadrant) (HeLa cells [10]; 12.5 μmol/L): 4.76%
- Early apoptotic rate (LR quadrant) (HeLa cells [10]; 25 μmol/L): 9.63%
- Early apoptotic rate (LR quadrant) (HeLa cells [10]; 50 μmol/L): 19.81%
- Ratio of Bax/Bcl-2 ([11]; 12.5μM): 0.087
- Ratio of Bax/Bcl-2 ([11]; 25μM): 1.092
- Ratio of Bax/Bcl-2 ([11]; 50μM): 1.929
- Expression level of Caspase-3 ([11]; HeLa, 12.5, 25 and 50 μmol/L): not remarkably concentration-dependent change
- Expression level of PI3K ([11]; HeLa, 12.5, 25 and 50 μmol/L): not remarkably concentration-dependent change
- Expression of Bcl-2 ([11]; HeLa, 12.5, 25 and 50 μmol/L): reduced
- Level of Bax ([11]; HeLa, 12.5, 25 and 50 μmol/L): increased
- Level of Cleaved caspase-3 ([11]; HeLa, 12.5, 25 and 50 μmol/L): increased
- melting point: 133 to 134 °C
